Measurements published in US9561228B2 (Celgene Avilomics Research, Inc., priority 2013, dated 2017).

Legend:
[1] = target: T1, MEK1 activated ERK1 (Homo sapiens, UniProt P27361); assay: Omnia continuous-read kinase assay for potency against MEK1 activated ERK1; format: biochemical; settings: ATP at KM, WT
T1 construct: purchased Millipore (Billerica, Mass.) 14-439-K
Summary of the method: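 Apparent IC50 came from initial reaction slopes (RFU vs time) plotted against log inhibitor with a variable-slope fit. Reactions were started with ERK1 (4 nM final) added to 50 μM ATP, roughly at its appKM, and 10 μM Sox-conjugated ST17 peptide in 20 mM Tris pH 7.5, 5 mM MgCl2. Fluorescence was monitored every 71 seconds.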

[2] = test system: ERK1/2 phosphorylation of p90RSK in HT29 cells; assay: pRSK MSD Assay in HT29 cells; format: cell-based; settings: Homo sapiens, HT-29, read-out: ERK1/ERK2 PRSK MSD HT29 EC50
Summary of the method: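 Serum-starved HT29 cells (0.1% FBS overnight) treated with test compound for 120 min at 37° C, then lysed with protease and phosphatase inhibitors. Phospho-p90RSK quantified by MSD sandwich immunoassay: RSK capture antibody, phospho-RSK detection antibody plus Sulfo-tagged antibody, electrochemiluminescence read.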

[3] = target: T2, Erk1 (Homo sapiens, UniProt P27361); assay: Protein Mass Modification Assay (intact protein MALDI, 60 min, 10-fold excess of compound); format: binding
T2 construct: purchased Millipore 14-439
T2 sequence (P27361 whole entry): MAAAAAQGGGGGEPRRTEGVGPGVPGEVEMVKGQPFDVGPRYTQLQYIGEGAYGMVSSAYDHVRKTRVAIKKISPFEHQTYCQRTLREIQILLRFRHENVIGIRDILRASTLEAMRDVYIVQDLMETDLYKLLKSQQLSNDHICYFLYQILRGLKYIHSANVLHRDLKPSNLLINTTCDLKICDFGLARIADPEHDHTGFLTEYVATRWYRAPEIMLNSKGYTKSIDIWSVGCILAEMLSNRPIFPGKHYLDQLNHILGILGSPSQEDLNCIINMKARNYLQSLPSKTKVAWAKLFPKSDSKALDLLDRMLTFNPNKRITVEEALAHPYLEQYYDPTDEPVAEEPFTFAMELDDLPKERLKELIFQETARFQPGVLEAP
Summary of the method: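 Human Erk1 was incubated 60 min at room temperature with a 10-fold molar excess of compound, then analysed as intact protein by MALDI with sinapinic acid matrix. The centroid mass shift versus untreated protein was divided by compound molecular weight to give percent modified protein.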

T1 sequence (P27361 whole entry): as above

SMILES | IC50 [1] | EC50 [2] | ERK1 Mass Mod (%) [3]
C=CC(=O)Nc1cc(C)ccc1Nc1nc(Nc2cc(OCC)ncc2C)ncc1C(F)(F)F [Compound I-358, N-(2-((2-((2-ethoxy-5-methylpyridin-4-yl)amino)-5-(trifluoromethyl)pyrimidin-4-yl)amino)-5-methylphenyl)acrylamide] | 101 to 500 nM | 101 to 500 nM | E (a mass modification of ≧70%)
C=CC(=O)Nc1cc(C)ccc1Nc1nc(Nc2c[nH]c(=O)cc2C)ncc1C(F)(F)F [Compound I-370, N-(5-methyl-2-((2-((4-methyl-6-oxo-1,6-dihydropyridin-3-yl)amino)-5-(trifluoromethyl)pyrimidin-4-yl)amino)phenyl)acrylamide] | 101 to 500 nM | 501 to 999 nM | E (a mass modification of ≧70%)
C=CC(=O)Nc1c(Nc2nc(Nc3cc(OC)ncc3C)ncc2C(F)(F)F)ccc(C)c1F [Compound I-367, N-(2-fluoro-6-((2-((2-methoxy-5-methylpyridin-4-yl)amino)-5-(trifluoromethyl)pyrimidin-4-yl)amino)-3-methylphenyl)acrylamide] | 101 to 500 nM | 101 to 500 nM | E (a mass modification of ≧70%)
C=CC(=O)Nc1cc(C)ccc1Nc1nc(Nc2cc(OC(C)C)ncc2C)ncc1C(F)(F)F [Compound I-369, N-(2-((2-((2-isopropoxy-5-methylpyridin-4-yl)amino)-5-(trifluoromethyl)pyrimidin-4-yl)amino)-5-methylphenyl)acrylamide] | > 1000 nM | > 1000 nM | F (a mass modification of 31-69%)
C=CC(=O)Nc1cc(C)ccc1Nc1nc(Nc2ccc3ocnc3c2)ncc1C(F)(F)F [Compound I-375, N-(2-((2-(benzo[d]oxazol-5-ylamino)-5-(trifluoromethyl)pyrimidin-4-yl)amino)-5-methylphenyl)acrylamide] | > 1000 nM | > 1000 nM | E (a mass modification of ≧70%)
C=CC(=O)Nc1cc(C)ccc1Nc1nc(Nc2cc(OC)nnc2OC)ncc1C(F)(F)F [Compound I-372, N-(2-((2-((3,6-dimethoxypyridazin-4-yl)amino)-5-(trifluoromethyl)pyrimidin-4-yl)amino)-5-methylphenyl)acrylamide] | 501 to 999 nM | < 100 nM | F (a mass modification of 31-69%)
C=CC(=O)Nc1cc(C)ccc1Nc1nc(Nc2cc(OC)ncc2Cl)ncc1C(F)(F)F [Compound I-351, N-(2-((2-((5-chloro-2-methoxypyridin-4-yl)amino)-5-(trifluoromethyl)pyrimidin-4-yl)amino)-5-methylphenyl)acrylamide] | 101 to 500 nM | 101 to 500 nM | F (a mass modification of 31-69%)
C#CC(=O)Nc1cc(C)ccc1Nc1nc(Nc2cc(OC)ncc2C)ncc1C(F)(F)F [Compound I-345, N-(2-((2-((2-methoxy-5-methylpyridin-4-yl)amino)-5-(trifluoromethyl)pyrimidin-4-yl)amino)-5-methylphenyl)propiolamide] | 101 to 500 nM | > 1000 nM | E (a mass modification of ≧70%)
C=CC(=O)Nc1cc(C)ccc1Nc1nc(Nc2cc(P(C)(C)=O)ncc2C)ncc1C(F)(F)F [Compound I-343, N-(2-((2-((2-(dimethylphosphoryl)-5-methylpyridin-4-yl)amino)-5-(trifluoromethyl)pyrimidin-4-yl)amino)-5-methylphenyl)acrylamide] | 101 to 500 nM | 101 to 500 nM | F (a mass modification of 31-69%)
C=CC(=O)Nc1cc(C)ccc1Nc1nc(Nc2nc(OC)nc(OC)n2)ncc1C(F)(F)F [Compound I-371, N-(2-((2-((4,6-dimethoxy-1,3,5-triazin-2-yl)amino)-5-(trifluoromethyl)pyrimidin-4-yl)amino)-5-methylphenyl)acrylamide] | 101 to 500 nM | 101 to 500 nM | F (a mass modification of 31-69%)
C=CC(=O)Nc1cc(OCC(N)=O)ccc1Nc1nc(NC2CCOCC2)ncc1C(F)(F)F [Compound I-387, N-(5-(2-amino-2-oxoethoxy)-2-((2-((tetrahydro-2H-pyran-4-yl)amino)-5-(trifluoromethyl)pyrimidin-4-yl)amino)phenyl)acrylamide] | 101 to 500 nM | 101 to 500 nM | E (a mass modification of ≧70%)
C=CC(=O)Nc1cc(CN2CCN(S(C)(=O)=O)CC2)ccc1Nc1nc(Nc2nc(OC)ncc2C)ncc1C(F)(F)F [Compound I-383, N-(2-((2-((2-methoxy-5-methylpyrimidin-4-yl)amino)-5-(trifluoromethyl)pyrimidin-4-yl)amino)-5-((4-(methylsulfonyl)piperazin-1-yl)methyl)phenyl)acrylamide] | 101 to 500 nM | < 100 nM | E (a mass modification of ≧70%)
C=CC(=O)Nc1cc(C)ccc1Nc1nc(Nc2cc(-c3nc[nH]n3)ccc2C)ncc1C(F)(F)F [Compound I-373, N-(5-methyl-2-((2-((2-methyl-5-(1H-1,2,4-triazol-3-yl)phenyl)amino)-5-(trifluoromethyl)pyrimidin-4-yl)amino)phenyl)acrylamide] | > 1000 nM | 101 to 500 nM | F (a mass modification of 31-69%)
C=CC(=O)Nc1cc(CN2CCN(C(=O)CO)CC2)ccc1Nc1nc(Nc2nc(OC)ncc2C)ncc1C(F)(F)F [Compound I-386, N-(5-((4-(2-hydroxyacetyl)piperazin-1-yl)methyl)-2-((2-((2-methoxy-5-methylpyrimidin-4-yl)amino)-5-(trifluoromethyl)pyrimidin-4-yl)amino)phenyl)acrylamide] | 501 to 999 nM | 501 to 999 nM | E (a mass modification of ≧70%)
C=CC(=O)Nc1cc(C)ccc1Nc1nc(Nc2cc(-c3c[nH]cn3)ccc2C)ncc1C(F)(F)F [Compound I-378, N-(2-((2-((5-(1H-imidazol-4-yl)-2-methylphenyl)amino)-5-(trifluoromethyl)pyrimidin-4-yl)amino)-5-methylphenyl)acrylamide] | 501 to 999 nM | 101 to 500 nM | E (a mass modification of ≧70%)

The remaining lines, values ahead:

IC50 [1] | EC50 [2] | ERK1 Mass Mod (%) [3] | SMILES
< 100 nM | 101 to 500 nM | E (a mass modification of ≧70%) | C=CC(=O)Nc1cc(OCCN)ccc1Nc1nc(Nc2cc(OC)ncc2C)ncc1C(F)(F)F [Compound I-396, N-(5-(2-aminoethoxy)-2-((2-((2-methoxy-5-methylpyridin-4-yl)amino)-5-(trifluoromethyl)pyrimidin-4-yl)amino)phenyl)acrylamide]
> 1000 nM | 501 to 999 nM | F (a mass modification of 31-69%) | C=CC(=O)Nc1cc(C)c(C#N)cc1Nc1nc(NC2CCOCC2)ncc1C(F)(F)F [Compound I-397, N-(4-cyano-5-methyl-2-((2-((tetrahydro-2H-pyran-4-yl)amino)-5-(trifluoromethyl)pyrimidin-4-yl)amino)phenyl)acrylamide]
501 to 999 nM | 501 to 999 nM | E (a mass modification of ≧70%) | C=CC(=O)Nc1cc(CN2CCN(C(=O)c3cnccn3)CC2)ccc1Nc1nc(Nc2nc(OC)ncc2C)ncc1C(F)(F)F [Compound I-393, N-(2-((2-((2-methoxy-5-methylpyrimidin-4-yl)amino)-5-(trifluoromethyl)pyrimidin-4-yl)amino)-5-((4-(pyrazine-2-carbonyl)piperazin-1-yl)methyl)phenyl)acrylamide]
101 to 500 nM | 101 to 500 nM | E (a mass modification of ≧70%) | C=CC(=O)Nc1cc(C(=O)N2CCN(S(C)(=O)=O)CC2)ccc1Nc1nc(Nc2cc(OC)ncc2C)ncc1C(F)(F)F [Compound I-401, N-(2-((2-((2-methoxy-5-methylpyridin-4-yl)amino)-5-(trifluoromethyl)pyrimidin-4-yl)amino)-5-(4-(methylsulfonyl)piperazine-1-carbonyl)phenyl)acrylamide]
501 to 999 nM | 101 to 500 nM | E (a mass modification of ≧70%) | C=CC(=O)Nc1cc(C)ccc1Nc1nc(Nc2cc(OC)ncc2C(F)F)ncc1C(F)(F)F [Compound I-431, N-(2-((2-((5-(difluoromethyl)-2-methoxypyridin-4-yl)amino)-5-(trifluoromethyl)pyrimidin-4-yl)amino)-5-methylphenyl)acrylamide]
101 to 500 nM | 501 to 999 nM | E (a mass modification of ≧70%) | C=CC(=O)Nc1cc(CN2CCOCC2)ccc1Nc1nc(Nc2cc(OC)ncc2C)ncc1C(F)(F)F [Compound I-399, N-(2-((2-((2-methoxy-5-methylpyridin-4-yl)amino)-5-(trifluoromethyl)pyrimidin-4-yl)amino)-5-(morpholinomethyl)phenyl)acrylamide]
101 to 500 nM | 501 to 999 nM | E (a mass modification of ≧70%) | C=CC(=O)Nc1cc(CN2CCN(C)CC2)ccc1Nc1nc(Nc2nc(OC)ncc2C)ncc1C(F)(F)F [Compound I-394, N-(2-((2-((2-methoxy-5-methylpyrimidin-4-yl)amino)-5-(trifluoromethyl)pyrimidin-4-yl)amino)-5-((4-methylpiperazin-1-yl)methyl)phenyl)acrylamide]
